Our source for the IC50 values is ChEMBL document CHEMBL3769336, “Discovery of a Chemical Tool Inhibitor Targeting the Bromodomains of TRIM24 and BRPF” (J Med Chem, 2016).

As usually defined, the IC50 is the point on the concentration scale where inhibition reaches its midpoint.

Test [1] addresses T1, Peregrin (Homo sapiens, UniProt P55201).
T1 sequence (P55201 whole entry): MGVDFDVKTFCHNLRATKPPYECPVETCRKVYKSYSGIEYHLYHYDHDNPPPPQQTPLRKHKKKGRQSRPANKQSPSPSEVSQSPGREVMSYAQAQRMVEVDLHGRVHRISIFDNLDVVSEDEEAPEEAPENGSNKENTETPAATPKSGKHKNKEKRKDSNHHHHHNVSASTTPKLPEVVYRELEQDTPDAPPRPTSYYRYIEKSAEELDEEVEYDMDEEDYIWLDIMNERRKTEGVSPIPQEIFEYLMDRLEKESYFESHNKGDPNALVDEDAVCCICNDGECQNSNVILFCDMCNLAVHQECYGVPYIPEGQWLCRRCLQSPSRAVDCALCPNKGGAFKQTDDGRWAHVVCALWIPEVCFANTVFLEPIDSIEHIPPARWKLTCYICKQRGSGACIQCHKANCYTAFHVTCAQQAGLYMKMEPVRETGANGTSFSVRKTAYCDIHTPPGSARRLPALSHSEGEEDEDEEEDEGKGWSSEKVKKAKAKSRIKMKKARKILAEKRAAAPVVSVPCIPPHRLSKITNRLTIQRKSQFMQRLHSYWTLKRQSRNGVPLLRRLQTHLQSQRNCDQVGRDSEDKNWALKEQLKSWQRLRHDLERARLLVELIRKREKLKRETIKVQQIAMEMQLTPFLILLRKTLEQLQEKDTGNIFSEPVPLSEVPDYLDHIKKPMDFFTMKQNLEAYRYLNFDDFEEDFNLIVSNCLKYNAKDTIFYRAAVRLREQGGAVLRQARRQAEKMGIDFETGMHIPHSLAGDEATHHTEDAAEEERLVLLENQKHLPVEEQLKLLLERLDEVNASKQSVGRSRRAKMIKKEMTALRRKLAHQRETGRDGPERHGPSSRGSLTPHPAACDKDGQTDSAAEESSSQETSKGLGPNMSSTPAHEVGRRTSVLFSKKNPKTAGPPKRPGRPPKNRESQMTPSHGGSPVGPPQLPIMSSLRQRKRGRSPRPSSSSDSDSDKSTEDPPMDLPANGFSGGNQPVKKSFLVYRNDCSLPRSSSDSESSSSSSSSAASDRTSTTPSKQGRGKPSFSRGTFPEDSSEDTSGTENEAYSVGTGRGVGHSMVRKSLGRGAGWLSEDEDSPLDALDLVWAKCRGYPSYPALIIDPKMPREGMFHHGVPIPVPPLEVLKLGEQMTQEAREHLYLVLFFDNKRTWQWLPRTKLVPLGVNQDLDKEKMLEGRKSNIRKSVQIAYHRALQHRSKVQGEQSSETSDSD
Nature of the test: Inhibition of BRPF1B (unknown origin) by Alpha Screen assay. For orientation: Alpha assays give light when donor and acceptor beads are brought close together.

Test [2] has as its target T2, Transcription intermediary factor 1-alpha (Homo sapiens, UniProt O15164).
T2 sequence (O15164 whole entry): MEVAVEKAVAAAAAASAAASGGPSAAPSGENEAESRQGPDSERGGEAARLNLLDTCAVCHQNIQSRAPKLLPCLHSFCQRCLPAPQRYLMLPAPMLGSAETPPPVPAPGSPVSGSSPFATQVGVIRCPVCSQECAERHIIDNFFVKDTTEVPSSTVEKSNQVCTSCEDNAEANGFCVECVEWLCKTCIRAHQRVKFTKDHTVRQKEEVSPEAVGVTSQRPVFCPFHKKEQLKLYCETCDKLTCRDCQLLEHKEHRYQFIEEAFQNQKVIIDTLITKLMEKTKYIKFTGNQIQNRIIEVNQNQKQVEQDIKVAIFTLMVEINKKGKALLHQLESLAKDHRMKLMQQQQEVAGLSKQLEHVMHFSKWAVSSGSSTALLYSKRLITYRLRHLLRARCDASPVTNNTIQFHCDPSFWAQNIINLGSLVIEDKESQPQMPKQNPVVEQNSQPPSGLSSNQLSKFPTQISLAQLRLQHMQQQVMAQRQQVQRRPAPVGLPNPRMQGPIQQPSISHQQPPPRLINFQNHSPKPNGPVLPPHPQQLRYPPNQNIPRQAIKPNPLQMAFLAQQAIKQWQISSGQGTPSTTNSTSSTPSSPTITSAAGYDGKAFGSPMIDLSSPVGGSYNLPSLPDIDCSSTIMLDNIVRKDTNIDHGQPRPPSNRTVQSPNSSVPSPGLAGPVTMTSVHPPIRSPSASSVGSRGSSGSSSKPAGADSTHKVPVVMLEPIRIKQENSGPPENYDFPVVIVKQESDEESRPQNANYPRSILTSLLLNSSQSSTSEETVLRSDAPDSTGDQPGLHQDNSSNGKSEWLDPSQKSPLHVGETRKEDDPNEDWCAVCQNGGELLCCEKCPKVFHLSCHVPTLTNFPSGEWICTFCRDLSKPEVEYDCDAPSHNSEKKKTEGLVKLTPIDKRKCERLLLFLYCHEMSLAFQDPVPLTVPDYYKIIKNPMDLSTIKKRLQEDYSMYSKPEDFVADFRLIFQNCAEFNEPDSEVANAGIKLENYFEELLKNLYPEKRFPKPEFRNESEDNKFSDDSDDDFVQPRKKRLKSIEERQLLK
Nature of the test: Inhibition of N-terminal His6-SUMO-1-tagged recombinant human TRIM24 bromodomain expressed in Escherichia coli BL21(DE3)-R3-pRARE2 cells by Alpha Screen assay.

The target of test [3] is T3, Bromodomain-containing protein 1 (Homo sapiens, UniProt O95696).
T3 sequence (O95696 whole entry): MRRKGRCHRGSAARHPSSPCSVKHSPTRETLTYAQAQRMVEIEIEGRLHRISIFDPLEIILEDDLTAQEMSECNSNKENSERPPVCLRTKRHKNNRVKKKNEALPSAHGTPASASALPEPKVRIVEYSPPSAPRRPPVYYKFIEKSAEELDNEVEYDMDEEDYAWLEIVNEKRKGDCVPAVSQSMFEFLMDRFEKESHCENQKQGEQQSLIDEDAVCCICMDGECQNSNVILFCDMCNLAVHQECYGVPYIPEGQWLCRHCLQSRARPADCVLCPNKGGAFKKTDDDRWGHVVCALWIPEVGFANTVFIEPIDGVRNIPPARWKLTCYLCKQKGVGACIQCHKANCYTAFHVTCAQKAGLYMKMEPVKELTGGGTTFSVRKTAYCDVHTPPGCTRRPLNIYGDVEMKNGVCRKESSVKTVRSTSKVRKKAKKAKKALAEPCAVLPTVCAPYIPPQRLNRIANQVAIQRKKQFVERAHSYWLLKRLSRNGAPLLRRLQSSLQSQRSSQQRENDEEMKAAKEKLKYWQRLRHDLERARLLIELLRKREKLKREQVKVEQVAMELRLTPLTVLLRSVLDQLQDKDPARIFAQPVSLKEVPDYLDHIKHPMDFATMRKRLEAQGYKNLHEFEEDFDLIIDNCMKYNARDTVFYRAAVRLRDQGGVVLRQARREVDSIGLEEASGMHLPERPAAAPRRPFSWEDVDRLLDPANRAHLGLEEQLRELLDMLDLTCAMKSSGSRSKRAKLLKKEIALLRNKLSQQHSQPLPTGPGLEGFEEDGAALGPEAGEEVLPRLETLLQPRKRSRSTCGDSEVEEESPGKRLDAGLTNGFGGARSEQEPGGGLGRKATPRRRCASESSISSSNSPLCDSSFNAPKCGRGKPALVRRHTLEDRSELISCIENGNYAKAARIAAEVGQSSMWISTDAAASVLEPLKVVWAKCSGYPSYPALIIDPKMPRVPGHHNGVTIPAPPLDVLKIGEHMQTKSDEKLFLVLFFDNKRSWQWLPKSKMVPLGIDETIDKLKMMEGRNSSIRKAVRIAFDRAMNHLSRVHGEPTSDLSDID
Nature of the test: Inhibition of BRPF2 BRD1 (unknown origin) by Alpha Screen assay.

For the compound `COC1(C)Oc2cc(S(=O)(=O)Nc3ccc4c(c3)n(C)c(=O)n4C)ccc2O[C@]1(C)OC` (stereo not given in full), the IC50 was 1.4 µM in test [1], above 10 µM in test [2] and above 10 µM in test [3].

In the case of `Cn1c(=O)n(C)c2cc(NS(=O)(=O)c3ccc4c(c3)CCC(C)(C)O4)ccc21`, the IC50 turned out to be 0.31 µM in test [1], 3.69 µM in test [2] and 2.46 µM in test [3].

Take `Cn1c(=O)n(C)c2cc(Oc3ccccc3)c(NS(=O)(=O)c3ccc4c(c3)CCCC4)cc21`: the results for the half-inhibitory concentration (IC50) in test [1], in test [2] and in test [3] were 2.68 µM, above 10 µM and 2.67 µM, respectively.

Turning to `COc1ccc(Oc2cc3c(cc2NS(=O)(=O)c2ccc(C)cc2)n(C)c(=O)n3C)cc1`, the IC50 was 2.24 µM in test [1], 2.7 µM in test [2] and above 10 µM in test [3].

In the case of `Cc1ccc(S(=O)(=O)Nc2ccc3c(c2)n(C)c(=O)n3C)cc1F`, the IC50 in test [1] is 0.59 µM; in test [2], above 10 µM; in test [3], 6.14 µM.

Regarding `Cn1c(=O)n(C)c2cc(NS(=O)(=O)c3ccc4c(c3)CCCO4)ccc21`, the IC50 in test [1] is 0.27 µM; in test [2], 4.63 µM; in test [3], 1.6 µM.

For the compound `Cn1c(=O)n(C)c2cc(NS(=O)(=O)c3ccc4c(c3)CCC4)ccc21`, the results for the IC50 in test [1], in test [2] and in test [3] were 0.29 µM, above 10 µM and 1.71 µM, respectively.

For the compound `Cc1ccccc1S(=O)(=O)Nc1cc2c(cc1Oc1ccccc1)n(C)c(=O)n2C`, the IC50 in test [1] is 0.43 µM; in test [2], 2.62 µM; in test [3], 1.7 µM.

Compound `COc1cc2c(cc1NS(=O)(=O)c1ccc(Br)cc1C)n(C)c(=O)n2C` returned an IC50 in test [3] of 1.2 µM.

Consider `Cc1cc(Cl)ccc1S(=O)(=O)Nc1cc2c(cc1Oc1ccccc1)n(C)c(=O)n2C`, for which the IC50 in test [1] stood at 1.17 µM; in test [2], 2.45 µM; in test [3], 2.39 µM.

As for `Cn1c(=O)n(C)c2cc(Oc3ccccc3)c(NS(=O)(=O)c3ccc(Cl)cc3)cc21`, the IC50 was found to be 0.27 µM in test [1], 1.56 µM in test [2] and 3.47 µM in test [3].

In the case of `Cc1ccc(F)cc1S(=O)(=O)Nc1cc2c(cc1Oc1ccccc1)n(C)c(=O)n2C`, the figures for the IC50 in test [1], in test [2] and in test [3] were 0.79 µM, 3.42 µM and 2.42 µM, respectively.

For `Cc1ccc(S(=O)(=O)Nc2cc3c(cc2Oc2ccccc2)n(C)c(=O)n3C)cc1C`, the results for the IC50 in test [1], in test [2] and in test [3] were 3.1 µM, 4.77 µM and 5.16 µM, respectively.

Regarding `CCCOc1ccc(S(=O)(=O)Nc2cc3c(cc2Oc2ccc(OC)cc2)n(C)c(=O)n3C)cc1`, the IC50 in test [1] is 6.72 µM; in test [2], 8.4 µM; in test [3], above 10 µM.

For `Cc1ccc(S(=O)(=O)Nc2cc3c(cc2Oc2ccccc2)n(C)c(=O)n3C)cc1`, the figures for the IC50 in test [1], in test [2] and in test [3] were 0.51 µM, 1.27 µM and 2.92 µM, respectively.

For the compound `COc1ccc(Oc2cc3c(cc2NS(=O)(=O)c2ccccc2)n(C)c(=O)n3C)cc1`, the IC50 was 0.66 µM in test [1], 0.73 µM in test [2] and 2.77 µM in test [3].

With `COc1ccc(S(=O)(=O)Nc2cc3c(cc2Oc2ccccc2)n(C)c(=O)n3C)cc1OC`, the IC50 in test [1] stood at 0.29 µM; in test [2], 0.48 µM; in test [3], 1.21 µM.

Take `COc1ccc(Oc2cc3c(cc2NS(=O)(=O)c2ccccc2C)n(C)c(=O)n3C)cc1`: the IC50 is 0.68 µM in test [1], 1.47 µM in test [2] and 2.38 µM in test [3].

As for `Cn1c(=O)n(C)c2cc(NS(=O)(=O)c3ccc4c(c3)CCCC4)ccc21`, the figures for the IC50 in test [1], in test [2] and in test [3] were 0.33 µM, 6.17 µM and 2.05 µM, respectively.

For the compound `COc1ccc(Oc2cc3c(cc2NS(=O)(=O)c2ccc(OC)cc2)n(C)c(=O)n3C)cc1`, the values for the half-inhibitory concentration (IC50) in test [1], in test [2] and in test [3] were 0.66 µM, 0.77 µM and 3.58 µM, respectively.

Regarding `COc1cccc(S(=O)(=O)Nc2cc3c(cc2Oc2ccccc2)n(C)c(=O)n3C)c1`, the figures for the IC50 in test [1], in test [2] and in test [3] were 0.43 µM, 2.38 µM and 1.99 µM, respectively.

On to `CC(C)c1ccc(S(=O)(=O)Nc2ccc3c(c2)n(C)c(=O)n3C)cc1`, for which the IC50 in test [1] came to 0.42 µM; in test [2] it was 3.45 µM; in test [3], 4.3 µM.

As to `Cc1ccc(S(=O)(=O)Nc2cc3c(cc2Oc2ccccc2)n(C)c(=O)n3C)cc1F`, the IC50 in test [1] was found to be 1.05 µM; in test [2], 2.7 µM; in test [3], 3.69 µM.

Take `COc1ccc(S(=O)(=O)Nc2cc3c(cc2Oc2ccccc2)n(C)c(=O)n3C)cc1`: the 50% inhibitory concentration (IC50) in test [1] turned out to be 0.34 µM; in test [2], 0.74 µM; in test [3], 1.33 µM.
